Laboratory results reported in PMC2671563 (PLoS Biology, 2009).
Read-outs that look alike come from different tables or passages of the source.

Experiments:
[1] = target: T1, human S100A9 binding to human TLR4/MD2 (Homo sapiens, UniProt P06702); test: SPR: inhibition of human S100A9 binding to immobilised human TLR4/MD2; conditions: for inhibition of hS100A9 binding to immobilised hTLR4/MD2: 100 nM hS100A9
T1 construct: purchased R&D Systems (TLR4/MD-2 complex); S100A9 made in house
T1 sequence (P06702 1-114): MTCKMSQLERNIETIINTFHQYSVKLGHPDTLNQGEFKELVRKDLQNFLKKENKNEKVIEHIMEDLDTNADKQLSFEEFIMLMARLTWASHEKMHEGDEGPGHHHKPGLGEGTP
Protocol: (§1) The SPR analysis was carried out with the Biacore 3000 system (GE Healthcare). Sensor chips, amine coupling kit, immobilization and running buffers, and regeneration solutions were obtained from GE Healthcare. Working solutions of all reagents used for Biacore analysis were prepared in 0.01 M Hepes, 0.15 M NaCl (pH 7.4) containing 0.005% v/v Surfactant P-20 (HBS-P; GE Healthcare) by buffer exchange on Fast Protein Desalting Micro-Spin Columns from Pierce. ABR-215757 was immobilised onto a CM5 chip through an amino-linker (ABR-224649). […] Activity of ligands after immobilisation was tested by injecting specific antibodies (unpublished data). In some experiments, S100A9 was immobilized either by random amine coupling or with a known orientation (i.e., by sulhydryl group conjugation to the only cysteine in S100A9 at position 3).
(§2) Binding to the various surfaces was performed by injecting the analyte at a flow rate of 30 μl/min in a physiological buffer (HBS-P) containing 1 mM Ca^2+ and 10 μM Zn^2+ as proposed for S100A8/9 by Robinson et al.. A typical analysis cycle consists of: (1) pumping running buffer for 1 min to obtain a stable baseline; (2) injection of sample for an appropriate period of time (association); (3) pumping running buffer for 2.5 min (dissociation); (4) injection of a short pulse (30 s) of 15 μl 10 mM glycine-HCl (pH 2.0) (regeneration); and (5) pumping running buffer for 2 min (stabilisation after regeneration) at a flow rate of 30 μl/min. […] In one experiment, S100A9 was injected into a buffer with a fixed Ca^2+ concentration (1 mM) and Zn^2+ in the range 0–50 μM. In a second experiment, Ca^2+ was varied from 0–2 mM at a fixed Zn^2+ concentration (10 μM). In subsequent analyses, regeneration was carried out under more mild conditions, i.e., by injecting 30 μl of HBS-P containing 3 mM EDTA (HBS-EP; GE Healthcare) for 60 s, to prolong the lifespan of the chip.
(§3) Compounds were also injected over the immobilised surfaces in the absence of S100A9 to exclude, or make possible correction for, any direct binding of compound to the surface.
(§4) Evaluation was carried out using BIAevaluation Software version 3.2 (GE Healthcare). The response at steady-state was obtained by fit of sensorgrams to standard binding models, where appropriate, or calculated as responses at late association or early dissociation phase using the Steady state affinity function in BIAevaluation. Affinity was determined from kinetic analysis (on- and off-rates) or as the apparent affinity after plotting responses versus concentration of analyte in a saturation curve. In the inhibition assay format, the competitor concentration yielding 50% inhibition (IC50) was calculated by fitting data to a one-site competition model in GraphPad Prism.

[2] = target: T2, human S100A9 (Homo sapiens, UniProt P06702); test: SPR: human S100A9 binding to immobilised ABR-224649 (Q compound), direct binding and displacement
T2 construct: made in house; host or cells: Escherichia coli (or purified from granulocytes)
T2 sequence (P06702 1-114): T1 sequence (P06702 1-114)
Protocol: as §1, §2, §3, §4

[3] = target: T3, hS100A9 (Homo sapiens, UniProt P06702); test: SPR: analytes injected over immobilised hS100A9; format: binding; conditions: 100 nM analyte, 1:1 model with mass transfer; read-out: KD, binding to immobilised hS100A9
T3 construct: made in house; host or cells: Escherichia coli (or purified from granulocytes)
T3 sequence (P06702 1-114): T1 sequence (P06702 1-114)
Protocol: as §1
(B) Left: 100 nM TLR4/MD2 or MD2 injected over amino-coupled hS100A9. […] Fab 43/8 was injected at 50–200 nM to verify activity of immobilized hS100A9 (right). […] (482 KB PDF) Click here for additional data file.

[4] = target: T4, human S100A9 binding to human RAGE (Homo sapiens, UniProt P06702); test: SPR: inhibition of human S100A9 binding to immobilised human RAGE
T4 construct: purchased R&D Systems (RAGE/Fc); S100A9 made in house
T4 sequence (P06702 1-114): T1 sequence (P06702 1-114)
Protocol: as §1, §2, §3, §4

[5] = target: T5, mS100A8/A9 and mLPS-Trap (Mus musculus, UniProt P31725); test: SPR: inhibition of mouse S100A8/A9 binding to mLPS-Trap; conditions: Table S1; read-out: S100A8-9 binding IC50, mS100A8/A9 TLR4
T5 sequence (P31725 2-113 limits assumed): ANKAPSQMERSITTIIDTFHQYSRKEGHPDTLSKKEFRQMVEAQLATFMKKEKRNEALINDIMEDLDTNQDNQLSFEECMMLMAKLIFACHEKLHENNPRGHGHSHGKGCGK
Protocol: as §1, §2, §3, §4

[6] = target: T6, mS100A9 and mRAGE/hFc (Mus musculus, UniProt P31725); test: SPR: inhibition of mouse S100A9 binding to immobilised mouse RAGE
T6 construct: purchased R&D Systems (mRAGE/Fc); S100A9 made in house
T6 sequence (P31725 2-113 limits assumed): T5 sequence (P31725 2-113 limits assumed)
Protocol: as §1, §2, §3, §4

[7] = tested on: serum TNFα after LPS challenge; test: LPS-induced systemic TNFα production in C57BL/6 mice; format: in vivo, mouse
Protocol: TNFα induction after intraperitoneal challenge with LPS was performed essentially as described. In brief, mice were pretreated for 2 h with 10 mg/kg ABR-215757 or PBS, after which 3 or 6 μg of LPS was injected intraperitoneally. After an additional 90 min, the animals were sacrificed, and the level of TNFα in blood was determined using commercial TNFα antibodies (eBioscience; http://www.ebioscience.com).

[8] = target: T7, human S100A8 (Homo sapiens, UniProt P05109); test: SPR: human S100A8 binding to immobilised Q compound; conditions: 100 nM protein
T7 construct: made in house; host or cells: Escherichia coli or granulocytes
T7 sequence (P05109 1-93): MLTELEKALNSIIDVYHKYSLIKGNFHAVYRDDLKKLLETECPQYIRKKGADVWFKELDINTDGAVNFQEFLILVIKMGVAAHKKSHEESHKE
Protocol: as §1
Binding to the various surfaces was performed by injecting the analyte at a flow rate of 30 μl/min in a physiological buffer (HBS-P) containing 1 mM Ca^2+ and 10 μM Zn^2+ as proposed for S100A8/9 by Robinson et al.. […]

[9] = tested on: aEAE development in SLJ/N mice; test: acute experimental autoimmune encephalomyelitis (aEAE) in mice; format: in vivo, mouse; conditions: Mus musculus, read-out: aEAE Inhibition ED50
Source text: A training set of five quinoline derivatives with structural diversification performed at position 5 of the quinoline ring system was used for the SAR. PCA was used to uncover any relationship between the binding activities of the quinoline derivatives at the S100 proteins and the inhibitory effect of these derivatives in the aEAE model. PLS was then used to model the relationship between the physiochemical descriptors used to characterize the compounds and their biological responses. […] All variables were mean centred and scaled to unit variance.

[10] = target: T8, human TLR4/MD2 (Homo sapiens, UniProt O00206+Q9Y6Y9); test: SPR: direct binding to immobilised human TLR4/MD2; conditions: unpublished data
T8 construct: purchased R&D Systems
Protocol: as §1, with “3). […]” for “3).”
(§5) Evaluation was carried out using BIAevaluation Software version 3.2 (GE Healthcare). The response at steady-state was obtained by fit of sensorgrams to standard binding models, where appropriate, or calculated as responses at late association or early dissociation phase using the Steady state affinity function in BIAevaluation. Affinity was determined from kinetic analysis (on- and off-rates) or as the apparent affinity after plotting responses versus concentration of analyte in a saturation curve. […]

[11] = target: T9, human RAGE (Homo sapiens, UniProt Q15109); test: SPR: direct binding to immobilised human RAGE; conditions: unpublished data
T9 construct: purchased R&D Systems
Protocol: as §1, with “3). […]” for “3).”
as §5

[12] = target: T10, mS100A9 and mLPS-Trap (Mus musculus, UniProt P31725); test: SPR: inhibition of mouse S100A9 binding to immobilised mouse TLR4/MD2 fusion protein (mLPS-Trap)
T10 sequence (P31725 2-113 limits assumed): T5 sequence (P31725 2-113 limits assumed)
Protocol: as §1, §2, §3, §4

[13] = target: T11, mS100A8/A9 and mRAGE (Mus musculus, UniProt P31725); test: SPR: inhibition of mouse S100A8/A9 binding to mouse RAGE; conditions: Table S1
T11 construct: purchased R&D Systems (mRAGE/Fc); S100A8/A9 made in house
T11 sequence (P31725 2-113 limits assumed): T5 sequence (P31725 2-113 limits assumed)
T11 sequence (P27005 2-89 partner limits assumed): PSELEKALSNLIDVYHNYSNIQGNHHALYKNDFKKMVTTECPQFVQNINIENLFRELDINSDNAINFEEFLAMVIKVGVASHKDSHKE
Protocol: as §1, §2, §3, §4

[14] = target: T12, mS100A9 (Mus musculus, UniProt P31725); test: SPR: inhibition of mouse S100A9 binding to immobilised ABR-224649; conditions: Table S1
T12 construct: made in house; host or cells: Escherichia coli (or purified from granulocytes)
T12 sequence (P31725 1-113): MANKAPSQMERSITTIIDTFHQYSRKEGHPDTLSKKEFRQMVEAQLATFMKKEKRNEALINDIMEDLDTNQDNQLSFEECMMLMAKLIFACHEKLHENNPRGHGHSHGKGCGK
Protocol: as §1, §2, §3, §4

[15] = target: T13, recombinant human RAGE/Fc (human, UniProt Q15109 23-342); test: SPR; S100 proteins injected (100 nM, or a range of concentrations; 30 ul/min) over human RAGE/Fc immobilised by amine coupling (~3,000 RU); HBS-P pH 7.4 with 1 mM Ca2+ and 10 uM Zn2+; fit to a 1:1 model with mass transfer; half-maximal binding from responses at late association (apparent); conditions: both partners purified
T13 construct: RAGE (receptor for advanced glycation end products), human; human IgG1 Fc was used as the control for the Fc part; also called hRAGE; rhRAGE/Fc; source: bought: R&D Systems (carrier-free recombinant)

[16] = target: T14, human TLR4/MD-2 complex (human, UniProt O00206 24-631; Q9Y6Y9 19-160); test: SPR; 100 nM TLR4/MD2 or MD2 injected over amine-coupled hS100A9 (~5,000 RU); fit to a 1:1 model with mass transfer; conditions: both partners purified
T14 construct: Toll-like receptor 4, human; MD-2, human; Soluble recombinant complex; also called hTLR4/MD-2; hTLR4/MD2; source: bought: R&D Systems (carrier-free recombinant)

[17] = target: T14, human TLR4/MD-2 complex; test: SPR; S100 proteins injected (100 nM, or a range of concentrations; 30 ul/min) over human TLR4/MD2 immobilised by amine coupling (~3,000 RU); HBS-P pH 7.4 with 1 mM Ca2+ and 10 uM Zn2+; fit to a 1:1 model with mass transfer; half-maximal binding from responses at late association (apparent); conditions: both partners purified

T14 sequence (O00206 24-631, chain 1 of 2): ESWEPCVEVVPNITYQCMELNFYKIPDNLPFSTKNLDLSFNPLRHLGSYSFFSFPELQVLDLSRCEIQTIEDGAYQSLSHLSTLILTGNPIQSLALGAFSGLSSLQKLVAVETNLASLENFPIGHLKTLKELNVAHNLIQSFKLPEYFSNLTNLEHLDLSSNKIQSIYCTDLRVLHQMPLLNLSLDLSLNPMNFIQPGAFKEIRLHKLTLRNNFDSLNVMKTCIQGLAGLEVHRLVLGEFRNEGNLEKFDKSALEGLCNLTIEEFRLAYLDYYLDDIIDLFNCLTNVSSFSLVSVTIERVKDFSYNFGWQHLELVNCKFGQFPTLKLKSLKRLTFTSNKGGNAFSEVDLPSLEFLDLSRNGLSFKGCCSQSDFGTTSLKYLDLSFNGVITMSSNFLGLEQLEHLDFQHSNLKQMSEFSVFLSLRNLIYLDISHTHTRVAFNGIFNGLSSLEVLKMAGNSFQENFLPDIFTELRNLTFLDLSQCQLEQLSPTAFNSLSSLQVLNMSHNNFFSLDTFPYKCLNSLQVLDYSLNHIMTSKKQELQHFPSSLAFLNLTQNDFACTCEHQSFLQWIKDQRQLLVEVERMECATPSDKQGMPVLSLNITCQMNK
T14 sequence (Q9Y6Y9 19-160, chain 2 of 2): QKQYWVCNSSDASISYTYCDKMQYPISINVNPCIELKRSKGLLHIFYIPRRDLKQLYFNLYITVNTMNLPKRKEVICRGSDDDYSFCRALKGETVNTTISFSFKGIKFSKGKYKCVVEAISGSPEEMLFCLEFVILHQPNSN
T9 sequence (Q15109 23-342 limits assumed): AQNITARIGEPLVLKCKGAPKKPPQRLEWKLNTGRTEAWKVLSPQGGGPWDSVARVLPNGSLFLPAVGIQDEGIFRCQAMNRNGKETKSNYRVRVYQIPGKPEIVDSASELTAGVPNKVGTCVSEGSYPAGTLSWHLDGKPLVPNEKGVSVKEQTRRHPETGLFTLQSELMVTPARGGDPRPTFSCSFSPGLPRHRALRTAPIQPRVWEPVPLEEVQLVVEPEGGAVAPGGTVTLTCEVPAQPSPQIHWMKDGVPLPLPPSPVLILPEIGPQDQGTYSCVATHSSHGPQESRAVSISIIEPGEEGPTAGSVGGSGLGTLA
T13 sequence (Q15109 23-342): as the sequence (Q15109 23-342 limits assumed) above
T8 sequence (O00206 24-631 limits assumed): as the sequence (O00206 24-631, chain 1 of 2) above
T8 sequence (Q9Y6Y9 19-160): as the sequence (Q9Y6Y9 19-160, chain 2 of 2) above

sTLR4/MD2: recombinant human TLR4/MD-2 complex in solution
inhibition of hS100A9 binding to immobilised hTLR4/MD2 ([1]; competitor 200 nM): 55%
inhibition of hS100A9 binding to immobilised hTLR4/MD2 ([1]; competitor 400 nM): 78%
blocking of S100A9 interaction with immobilised TLR4 by competitor in solution ([1]; injected together with S100A9): efficiently block
inhibition of S100A9 interaction with immobilised Q compound by competitor in solution ([2]; injected together with S100A9): inhibit
Kd [3]: 9.2 nM
inhibition of S100A9 interaction with immobilised RAGE by competitor in solution ([4]; injected together with S100A9): inhibit

CCc1cccc2c1c(O)c(C(=O)N(CC)c1ccccc1)c(=O)n2C [ABR-215757]
IC50 [5]: 334 µM
competition of mouse S100A9 interaction with solid-phase mouse RAGE ([6]; 100 nM mouse S100A9): competed
IC50 ([6]; Table S1): 311 µM
IC50 ([1]; 100 nM S100A9, competitor 7.81 to 1,000 μM, single experiment Figure 3C, read-out: IC50, inhibition of S100A9 binding to immobilised hTLR4/MD2): 23 µM
IC50 ([1]; Table S1, read-out: S100A9 binding IC50, hS100A9 TLR4): 59.7 µM
TNFα production after LPS challenge ([7]; 3 μg LPS i.p., treatment 2 h before (ABR-215757 10 mg/kg)): significantly inhibited
TNFα production after LPS challenge ([7]; 6 μg LPS i.p., 10 mg/kg 2 h before): significantly inhibited
binding of S100A8 to immobilised Q compound [8]: close to baseline levels
binding of recombinant S100A9 to Q compound coupled to solid phase [2]: bound strongly
IC50 ([2]; 100 nM S100A9, competitor 7.81–1,000 μM, one-site competition model, 1 mM Ca2+ and 10 μM Zn2+): 37 µM
ED50 [9]: 0.04 mg/kg
direct binding to hTLR4/MD2 [10]: negligible
direct binding to RAGE [11]: not observed
competition of mouse S100A9 interaction with solid-phase mouse TLR4/MD2 ([12]; 100 nM mouse S100A9): competed
IC50 ([12]; Table S1): 698 µM
IC50 [13]: 334 µM
IC50 ([4]; S100A9 binding IC50, hS100A9 RAGE, Table S1): 60.5 µM
IC50 ([4]; competitor concentration yielding 50% inhibition of S100A9 binding to RAGE surface, 100 nM S100A9, competitor 7.81–1,000 μM, single experiment Figure 2C): 26 µM
IC50 [14]: 940 µM

B1: human S100A9 (natural protein, UniProt P06702 1-114, looked up)
chain: T1 sequence (P06702 1-114)
notes: S100A9, human; called homodimeric; also called hS100A9; homodimeric S100A9; source: either produced recombinantly in Escherichia coli or purified from granulocytes
Kd [15]: 38 nM
Kd [16]: 9.2 nM
Kd [17]: 2.1 nM
